Here are results for 18 molecules from patent US20260159525A1, “TRICYCLIC HETEROCYCLES” (Merck Patent GmbH, priority 2021, published 2026).

Common to all, as to format: cell-based
The subject of one assay is SW620 Yap KO cells. The experiment in a line: Viability assay in SW620 Yap KO (Yap independent) cells, CyQUANT. Conditions: Homo sapiens, SW-620, SW620 YAP and TAZ knocked out (YAP independent), 96 hour incubation. On the procedure: (§1) Viability Assay in NCI-H226 (Yap-Dependent) and SW620 Yap KO (Yap Independent) Cells
(§2) The ability of YAP-TEAD inhibitors to inhibit tumor cell growth was evaluated using two different cell lines: NCI-H226, which is a YAP dependent cell line, and SW620 cells, where YAP and TAZ were knocked out using CRISPR to generate a YAP independent cell line.
(§3) For the assay, cells were treated in duplicates with the test compounds in a 10-point dose, 1:3 dilution steps, with the top concentration starting at 30 μM (final concentration in assay). After a 96 hour incubation at 37° C., 95% rH, and 5% CO2, a cell-permeant DNA-binding dye that stains only healthy cells (CyQUANT®, Promega) was added to the cells, allowing the quantification of cell viability.
(§4) Cell Media: The NCI-H226 cells were cultured in the following media: RPMI 1640, +10% FBS, +1× GlutaMAX, +10 mM HEPES, +0.5% Pen/Strep. The SW620-KO cells were cultured in the following media: DMEM/F-12, +10% FBS, +1× GlutaMAX, +10 mM HEPES, +0.5% Pen/Strep.
(§5) Reagents: The reagents used are listed below:
(§6) Cell culture: The cells were examined using an inverted microscope to check for health, cell density, etc. To dissociate adherent cells, the monolayer of cells was washed once with pre-warmed PBS. After removing the PBS, 3 ml pre-warmed Accutase was added to a F75 flask, dispersed evenly and the flask was allowed to sit in incubator for ˜4-5 minutes.
(§7) When a single cell suspension was obtained, 7 ml of prewarmed growth media was added and resuspended with the cells. The cell suspension was transferred to a sterile 15 ml conical centrifuge tube, and spun for 5 min at 300×g, RT. The supernatant was discarded and the pellet was resuspended in 10 ml of pre-warmed growth media.
(§8) The total cell count was determined, and 20 μl of the desired cell number was added to each well of a 384 well plate using a Multidrop Combi. The plates were then incubated for 24 hours at 37° C., 95% rH, and 5% CO2.
(§9) Compound treatment: 24 hours after seeding, the cells were treated with compounds.
(§10) A 1:333 dilution of compounds, diluted in DMSO, was made to get a final concentration of 0.3% DMSO per well. To transfer the compounds to the assay plate, 120 nl was shot from Labcyte low dead volume plates to the cell plates containing 20 μl media/well with the ECHO 555 liquid handling system. After treatment, the cells were fed with 20 μl fresh pre-warmed assay media using a Multidrop combi.
(§11) The assay plates were then incubated for 96 h at 37° C., 95% rH, and 5% CO2.
(§12) 96 h after treatment 30 μl of CyQuant® reagent was added to the assay plates using a Multidrop combi in the dark. The plates were then incubated for 1 hour at 37° C., 95% rH and 5% CO2. Thereafter, the assay plates were removed from the incubator and allowed to equilibrate to RT for 30 min in the dark without lid. Finally, they were measured using an EnVision microplate reader with a FITC bottom read program.

The next assay deals with YAP-TEAD interaction. The experiment in a line: SK-HEP-1 reporter assay (8x TEAD responsive elements driving NanoLuc luciferase). The note with it: Homo sapiens, SK-HEP1, SK-HEP-1 cells, 24 hour incubation. Put shortly: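 SK-HEP-1 cells carrying a stably integrated 8× TEAD-element NanoLuc reporter, seeded 24 h before dosing, were treated in duplicate with a 10-point dose series (top 30 μM final, 0.3% DMSO) for 24 h at 37°C, 5% CO2. Luciferase activity read by NanoGlo luminescence; IC50 derived from it.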

The subject of another assay is NCI-H226 cells. The experiment in a line: Viability assay in NCI-H226 (Yap-dependent) cells, CyQUANT. The note with it: Homo sapiens, NCI-H226 YAP dependent cell line, 96 hour incubation, group symbols. On the procedure: as §1, §2, §3, §4, §5, §6, §7, §8, §9, §10, §11, §12
[1] abbreviates: n.d. (x) = not detectable below threshold x.
The mark [2] stands for this setting: number, or n.d. (x) = not detectable below threshold x.

Take `Cn1cc2c3cc(C(=O)N=[S@](C)(=O)CCCO)sc3n(-c3ccc(C(F)(F)F)cc3)c2n1` (single isomer, unassigned) [Compound 62]: the IC50 is over 3000 nM with SW620 Yap KO cells (setting [1]), over 300 nM with YAP-TEAD interaction (setting [2]) and 100 to 1000 nM with NCI-H226 cells.

As for `Cn1ccc([C@@H](CO)NC(=O)c2cc3c4cn(C)nc4n(-c4ccc(C(F)(F)F)cc4)c3s2)n1` (single isomer, unassigned) [Compound 130], the figures for the IC50 in the assay with SW620 Yap KO cells (setting [1]), in the assay on YAP-TEAD interaction (group symbols) and in the assay with NCI-H226 cells were over 30000 nM, 10 to 100 nM and 1 to 100 nM, respectively.

In the case of `Cn1cc2c3sc(C(=O)O)cc3n(-c3ccc(OC(F)F)cc3)c2n1` [Compound 10, 7-[4-(difluoromethoxy)phenyl]-10-methyl-3-thia-7,9,10-triazatricyclo[6.3.0.0^2,6]undeca-1(11),2(6),4,8-tetraene-4-carboxylic acid], the IC50 with SW620 Yap KO cells (setting [1]) is over 30000 nM; with YAP-TEAD interaction (group symbols), 10 to 100 nM; with NCI-H226 cells it was 100 to 1000 nM.

As for `Cn1cc2c3cc(C(=O)O)sc3n(-c3ccc(C(F)(F)F)cc3)c2n1` [Compound 19, 4-methyl-7-[4-(trifluoromethyl)phenyl]-9-thia-4,5,7-triazatricyclo[6.3.0.0^2,6]undeca-1(8),2,5,10-tetraene-10-carboxylic acid], the IC50 in the assay on SW620 Yap KO cells (setting [1]) is over 30000 nM; with YAP-TEAD interaction (group symbols) it was 1 to 10 nM; in the assay on NCI-H226 cells it was 1 to 100 nM.

Turning to `Cn1cnc2c1c1sc(C(=O)O)cc1n2-c1ccc(C(F)(F)F)cc1` [Compound 20, 3-methyl-7-[4-(trifluoromethyl)phenyl]-11-thia-3,5,7-triazatricyclo[6.3.0.0^2,6]undeca-1(8),2(6),4,9-tetraene-10-carboxylic acid], the values for the IC50 with SW620 Yap KO cells (setting [1]), in the assay with YAP-TEAD interaction (group symbols) and with NCI-H226 cells were over 30000 nM, 10 to 100 nM and 100 to 1000 nM, respectively.

`CNC(=O)c1cc2c(s1)c1c(ncn1C)n2-c1ccc(C(F)(F)F)cc1` [Compound 21, N,3-dimethyl-7-[4-(trifluoromethyl)phenyl]-11-thia-3,5,7-triazatricyclo[6.3.0.0^2,6]undeca-1(8),2(6),4,9-tetraene-10-carboxamide]: the IC50 with SW620 Yap KO cells (group symbols) lay in the range of 1000 to 10000 nM; in the assay with YAP-TEAD interaction (group symbols) it was 100 to 10000 nM; in the assay with NCI-H226 cells it was 100 to 1000 nM.

For `Cc1nc2c3sc(C(=O)O)cc3n(-c3ccc(C(F)(F)F)cc3)c2s1` [Compound 22, 4-methyl-7-[4-(trifluoromethyl)phenyl]-5,11-dithia-3,7-diazatricyclo[6.3.0.0^2,6]undeca-1(8),2(6),3,9-tetraene-10-carboxylic acid], the IC50 with SW620 Yap KO cells (setting [1]) is over 30000 nM; in the assay with YAP-TEAD interaction (group symbols), 10 to 100 nM; in the assay with NCI-H226 cells, 100 to 1000 nM.

As to `Cc1nc2c3sc(C(=O)O)cc3n(-c3ccc(OC(F)(F)F)cc3)c2s1` [Compound 25, 4-methyl-7-[4-(trifluoromethoxy)phenyl]-5,11-dithia-3,7-diazatricyclo[6.3.0.0^2,6]undeca-1(8),2(6),3,9-tetraene-10-carboxylic acid], the IC50 in the assay on SW620 Yap KO cells (setting [1]) was over 30000 nM; in the assay on YAP-TEAD interaction (group symbols), 10 to 100 nM; in the assay on NCI-H226 cells, 100 to 1000 nM.

Regarding `Cn1nc2c3sc(C(=O)O)cc3n(-c3ccc(OC(F)(F)F)cc3)c2n1` [Compound 27, 4-methyl-7-[4-(trifluoromethoxy)phenyl]-11-thia-3,4,5,7-tetraazatricyclo[6.3.0.0^2,6]undeca-1(8),2,5,9-tetraene-10-carboxylic acid], the 50% inhibitory concentration (IC50) with SW620 Yap KO cells (setting [1]) is over 30000 nM; in the assay on YAP-TEAD interaction (group symbols), 10 to 100 nM; in the assay on NCI-H226 cells, 100 to 1000 nM.

With `Cn1cc2c3cc(C(=O)NCc4ccncc4)sc3n(-c3ccc(C(F)(F)F)cc3)c2n1` [Compound 31, 4-methyl-N-[(pyridin-4-yl)methyl]-7-[4-(trifluoromethyl)phenyl]-9-thia-4,5,7-triazatricyclo[6.3.0.0^2,6]undeca-1(8),2,5,10-tetraene-10-carboxamide], the figures for the IC50 with SW620 Yap KO cells (setting [1]), in the assay with YAP-TEAD interaction (group symbols) and with NCI-H226 cells were over 3200 nM, over 10000 nM and 1 to 100 nM, respectively.

Regarding `C[C@H](CO)NC(=O)c1cc2c3cn(C)nc3n(-c3ccc(C(F)(F)F)cc3)c2s1` [Compound 33, N-[(2R)-1-hydroxypropan-2-yl]-4-methyl-7-[4-(trifluoromethyl)phenyl]-9-thia-4,5,7-triazatricyclo[6.3.0.0^2,6]undeca-1(8),2,5,10-tetraene-10-carboxamide], the IC50 in the assay with SW620 Yap KO cells (setting [1]) is over 3200 nM; with YAP-TEAD interaction (group symbols), 10 to 100 nM; in the assay with NCI-H226 cells it was 1 to 100 nM.

Regarding `Cn1cc2c3cc(C(=O)N[C@@H](CO)c4ccccn4)sc3n(-c3ccc(C(F)(F)F)cc3)c2n1` [Compound 35, N-[(1R)-2-hydroxy-1-(pyridin-2-yl)ethyl]-4-methyl-7-[4-(trifluoromethyl)phenyl]-9-thia-4,5,7-triazatricyclo[6.3.0.0^2,6]undeca-1(8),2,5,10-tetraene-10-carboxamide], the IC50 in the assay on SW620 Yap KO cells (setting [1]) is over 3200 nM; with YAP-TEAD interaction (group symbols), 10 to 100 nM; in the assay on NCI-H226 cells, 1 to 100 nM.

In the case of `Cn1cc2c3sc(C(=O)O)cc3n(C[C@H]3C[C@@H](C(F)(F)F)C3)c2n1` [Compound 36, 10-methyl-7-{[(1s,3s)-3-(trifluoromethyl)cyclobutyl]methyl}-3-thia-7,9,10-triazatricyclo[6.3.0.0^2,6]undeca-1(11),2(6),4,8-tetraene-4-carboxylic acid], the IC50 in the assay on SW620 Yap KO cells (setting [1]) was over 30000 nM; with YAP-TEAD interaction (group symbols), 100 to 10000 nM; in the assay on NCI-H226 cells, 100 to 1000 nM.

As to `Cn1cc2c3sc(C(=O)O)cc3n(C[C@H]3C[C@H](C(F)(F)F)C3)c2n1` [Compound 37, 10-methyl-7-{[(1r,3r)-3-(trifluoromethyl)cyclobutyl]methyl}-3-thia-7,9,10-triazatricyclo[6.3.0.0^2,6]undeca-1(11),2(6),4,8-tetraene-4-carboxylic acid], the IC50 in the assay with SW620 Yap KO cells (setting [1]) is over 30000 nM; with YAP-TEAD interaction (group symbols), 100 to 10000 nM; with NCI-H226 cells, 1000 to 10000 nM.

For the molecule `Cn1cc2c3cc(C(=O)O)sc3n(-c3ccc(SC(F)(F)F)cc3)c2n1` [Compound 40, 4-methyl-7-{4-[(trifluoromethyl)sulfanyl]phenyl}-9-thia-4,5,7-triazatricyclo[6.3.0.0^2,6]undeca-1(8),2,5,10-tetraene-10-carboxylic acid], the results for the IC50 with SW620 Yap KO cells (setting [1]), with YAP-TEAD interaction (group symbols) and in the assay on NCI-H226 cells were over 30000 nM, 10 to 100 nM and 1 to 100 nM, respectively.

As to `C[C@H](O)CNC(=O)c1cc2c3cn(C)nc3n(-c3ccc(C(F)(F)F)cc3)c2s1` [Compound 43, N-[(2S)-2-hydroxypropyl]-4-methyl-7-[4-(trifluoromethyl)phenyl]-9-thia-4,5,7-triazatricyclo[6.3.0.0^2,6]undeca-1(8),2,5,10-tetraene-10-carboxamide], the 50% inhibitory concentration (IC50) in the assay with SW620 Yap KO cells (setting [1]) is over 3000 nM; with YAP-TEAD interaction (setting [2]) it was over 9500 nM; with NCI-H226 cells it was 1 to 100 nM.

For `C[C@@H](O)CNC(=O)c1cc2c3cn(C)nc3n(-c3ccc(C(F)(F)F)cc3)c2s1` [Compound 44, N-[(2R)-2-hydroxypropyl]-4-methyl-7-[4-(trifluoromethyl)phenyl]-9-thia-4,5,7-triazatricyclo[6.3.0.0^2,6]undeca-1(8),2,5,10-tetraene-10-carboxamide], the results for the IC50 in the assay with SW620 Yap KO cells (setting [1]), in the assay with YAP-TEAD interaction (setting [2]) and with NCI-H226 cells were over 3000 nM, over 9500 nM and 1 to 100 nM, respectively.

Take `Cn1cc2c3cc(C(=O)NCc4cccnc4)sc3n(-c3ccc(C(F)(F)F)cc3)c2n1` [Compound 45, 4-methyl-N-[(pyridin-3-yl)methyl]-7-[4-(trifluoromethyl)phenyl]-9-thia-4,5,7-triazatricyclo[6.3.0.0^2,6]undeca-1(8),2,5,10-tetraene-10-carboxamide]: the IC50 is 1000 to 10000 nM in the assay with SW620 Yap KO cells (group symbols), over 9500 nM in the assay on YAP-TEAD interaction (setting [2]) and 1 to 100 nM in the assay on NCI-H226 cells.

As a reminder, the IC50 is the concentration needed to halve the response being measured. Low values mean greater potency, high ones weaker potency.
